Assay results as given in patent US20250129047A1, “ISOQUINOLINE DERIVATIVES AS MUTANT EGFR MODULATORS AND USES THEREOF” (NEWAVE PHARMACEUTICAL INC., priority 2021, published 2025).

Assays:
Settings in all cases: apparent IC50; 1.0 mM ATP or ATP Km; FL-Peptide 22 substrate; 25° C.
[1] = biological target: T1, EGFR (d746-750) T790M C797S (Homo sapiens, UniProt P00533, C797S/DEL746-750/T790M); test: Biochemical EGFR inhibition assay (Caliper mobility shift), EGFR d746-750 T790M C797S
T1 construct: purchased SignalChem E10-122UG
Procedure: (§1) Inhibitory effects of the compounds of the disclosure were measured in biochemical assays that measure the phosphorylation activity of EGFR enzyme phosphorylates 2.5 micromolar 5-FAM-EEPLYWSFPAKKK-CONFF peptide substrate (FL-Peptide 22, PerkinElmer, 760366) in the presence of adenosine-5′-triphosphate (ATP) and varying concentrations of the test compound in 100 mM 2-[4-(2-hydroxyethyl)piperazin-1-yl]ethanesulfonic acid (HEPES), pH 7.5, 10 mM MgCE. 0.015% Brij-35, 1 mM dithiothreitol (DTT), 1.0% dimehylsulfoxide (DMSO). Assays were performed at 1.0 mM ATP or at ATP Km of the EGFR enzymes. Reactions proceeded until between 10% to 20% total peptides were phosphorylated at room temperature (25° C.) and were terminated with 35 mM 2,2′,2″,2″-(ethane-1,2-diyldinitrilo)tetraacetic acid (EDTA). Product was detected using the Caliper mobility shift detection method where the phosphorylated peptide (product) and substrate were electrophoretically separated and measured. Percent activity was plotted against log concentration of compound and points to generate an apparent IC50. […]

[2] = biological target: T2, EGFR L858R (Homo sapiens, UniProt P00533, L858R); test: Biochemical EGFR inhibition assay (Caliper mobility shift), EGFR L858R
T2 construct: purchased SignalChem E10-122BG
Procedure: as §1

[3] = biological target: EGFR L858R T790M (Homo sapiens, UniProt P00533, L858R/T790M); test: Biochemical EGFR inhibition assay (Caliper mobility shift), EGFR L858R T790M
Procedure: as §1

[4] = biological target: T3, EGFR (L858R T790M C797S) (Homo sapiens, UniProt P00533, C797S/L858R/T790M); test: Biochemical EGFR inhibition assay (Caliper mobility shift), EGFR L858R T790M C797S
T3 construct: purchased SignalChem E10-122VG
Procedure: as §1

[5] = biological target: EGFR d746-750 T790M (Homo sapiens, UniProt P00533, DEL746-750/T790M); test: Biochemical EGFR inhibition assay (Caliper mobility shift), EGFR d746-750 T790M
Procedure: as §1

T2 sequence (P00533 25-1210 L858R): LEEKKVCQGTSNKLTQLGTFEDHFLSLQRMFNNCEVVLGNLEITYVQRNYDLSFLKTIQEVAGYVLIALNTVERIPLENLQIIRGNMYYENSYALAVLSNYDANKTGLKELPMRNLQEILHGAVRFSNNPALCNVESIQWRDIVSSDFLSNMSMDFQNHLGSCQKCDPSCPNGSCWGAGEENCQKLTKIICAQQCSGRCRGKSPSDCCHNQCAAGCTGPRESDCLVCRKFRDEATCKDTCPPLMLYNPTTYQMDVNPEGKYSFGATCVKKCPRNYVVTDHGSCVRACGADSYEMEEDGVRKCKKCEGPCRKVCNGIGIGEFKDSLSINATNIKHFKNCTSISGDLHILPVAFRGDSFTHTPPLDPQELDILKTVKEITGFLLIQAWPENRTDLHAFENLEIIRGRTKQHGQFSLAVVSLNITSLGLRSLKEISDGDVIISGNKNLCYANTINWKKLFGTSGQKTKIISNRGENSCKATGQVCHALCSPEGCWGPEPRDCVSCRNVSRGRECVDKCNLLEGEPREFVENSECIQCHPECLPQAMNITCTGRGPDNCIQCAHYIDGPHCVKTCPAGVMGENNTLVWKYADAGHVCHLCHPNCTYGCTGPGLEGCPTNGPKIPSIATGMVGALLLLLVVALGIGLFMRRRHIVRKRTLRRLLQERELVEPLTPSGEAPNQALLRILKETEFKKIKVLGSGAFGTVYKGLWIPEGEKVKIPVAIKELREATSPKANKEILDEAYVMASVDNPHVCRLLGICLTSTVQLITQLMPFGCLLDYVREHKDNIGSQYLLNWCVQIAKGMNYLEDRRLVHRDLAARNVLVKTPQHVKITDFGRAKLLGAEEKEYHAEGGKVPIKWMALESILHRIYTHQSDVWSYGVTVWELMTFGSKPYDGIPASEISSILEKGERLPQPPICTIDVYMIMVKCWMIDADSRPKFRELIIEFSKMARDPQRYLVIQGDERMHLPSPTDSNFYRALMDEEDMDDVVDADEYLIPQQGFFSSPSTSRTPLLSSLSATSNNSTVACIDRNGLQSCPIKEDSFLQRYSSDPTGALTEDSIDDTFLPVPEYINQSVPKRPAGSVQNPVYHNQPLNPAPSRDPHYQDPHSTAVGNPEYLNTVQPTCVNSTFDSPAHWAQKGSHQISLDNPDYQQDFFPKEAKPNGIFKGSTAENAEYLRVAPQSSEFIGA
T1 sequence (P00533 with tags, fused parts or gaps DEL746-750/T790M/C797S limits assumed): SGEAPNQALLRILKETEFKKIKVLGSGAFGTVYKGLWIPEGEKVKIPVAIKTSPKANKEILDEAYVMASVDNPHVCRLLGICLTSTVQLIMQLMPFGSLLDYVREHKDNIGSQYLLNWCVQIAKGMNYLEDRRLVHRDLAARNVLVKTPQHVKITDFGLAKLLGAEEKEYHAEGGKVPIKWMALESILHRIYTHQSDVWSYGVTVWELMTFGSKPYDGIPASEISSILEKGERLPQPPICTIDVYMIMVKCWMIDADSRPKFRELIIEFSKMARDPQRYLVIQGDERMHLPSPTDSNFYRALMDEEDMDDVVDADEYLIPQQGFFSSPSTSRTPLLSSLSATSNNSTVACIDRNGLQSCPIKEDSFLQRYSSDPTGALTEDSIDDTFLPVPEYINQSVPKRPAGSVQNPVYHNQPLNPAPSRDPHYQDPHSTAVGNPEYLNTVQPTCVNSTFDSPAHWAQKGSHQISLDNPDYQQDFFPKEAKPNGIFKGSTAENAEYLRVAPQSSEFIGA
T3 sequence (P00533 25-1210 T790M/C797S/L858R): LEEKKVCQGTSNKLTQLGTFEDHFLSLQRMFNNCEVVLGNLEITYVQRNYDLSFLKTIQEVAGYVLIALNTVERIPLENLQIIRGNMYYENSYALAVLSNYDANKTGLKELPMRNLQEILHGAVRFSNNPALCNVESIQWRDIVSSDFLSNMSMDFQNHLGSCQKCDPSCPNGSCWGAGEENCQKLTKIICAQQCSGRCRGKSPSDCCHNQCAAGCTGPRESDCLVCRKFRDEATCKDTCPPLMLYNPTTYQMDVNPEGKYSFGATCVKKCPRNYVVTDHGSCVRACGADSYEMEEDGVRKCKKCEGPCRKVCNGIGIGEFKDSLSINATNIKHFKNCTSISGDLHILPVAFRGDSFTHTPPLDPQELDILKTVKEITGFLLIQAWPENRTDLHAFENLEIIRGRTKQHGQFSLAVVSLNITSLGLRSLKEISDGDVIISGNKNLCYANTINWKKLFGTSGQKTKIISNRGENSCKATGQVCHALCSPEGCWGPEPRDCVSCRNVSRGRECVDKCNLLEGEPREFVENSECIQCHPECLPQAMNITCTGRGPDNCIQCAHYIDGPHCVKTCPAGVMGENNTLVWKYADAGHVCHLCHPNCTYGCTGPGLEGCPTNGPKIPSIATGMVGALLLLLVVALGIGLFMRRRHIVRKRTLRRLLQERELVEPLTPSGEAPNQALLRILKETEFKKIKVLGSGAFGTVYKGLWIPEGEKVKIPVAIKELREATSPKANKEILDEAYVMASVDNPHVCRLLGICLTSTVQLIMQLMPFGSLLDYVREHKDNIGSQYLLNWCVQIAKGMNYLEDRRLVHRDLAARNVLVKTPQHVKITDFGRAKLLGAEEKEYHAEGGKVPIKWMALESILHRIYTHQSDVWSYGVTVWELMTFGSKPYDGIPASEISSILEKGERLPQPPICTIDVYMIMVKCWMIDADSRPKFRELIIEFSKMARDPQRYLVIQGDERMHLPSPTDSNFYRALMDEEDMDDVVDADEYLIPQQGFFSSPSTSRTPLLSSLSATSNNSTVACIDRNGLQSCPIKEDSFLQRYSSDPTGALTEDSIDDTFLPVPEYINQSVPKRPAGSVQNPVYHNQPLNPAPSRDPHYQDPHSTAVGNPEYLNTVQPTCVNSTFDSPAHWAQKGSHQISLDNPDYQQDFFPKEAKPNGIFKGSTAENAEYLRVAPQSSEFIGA
Chain of EGFR L858R T790M (P00533 25-1210 T790M/L858R): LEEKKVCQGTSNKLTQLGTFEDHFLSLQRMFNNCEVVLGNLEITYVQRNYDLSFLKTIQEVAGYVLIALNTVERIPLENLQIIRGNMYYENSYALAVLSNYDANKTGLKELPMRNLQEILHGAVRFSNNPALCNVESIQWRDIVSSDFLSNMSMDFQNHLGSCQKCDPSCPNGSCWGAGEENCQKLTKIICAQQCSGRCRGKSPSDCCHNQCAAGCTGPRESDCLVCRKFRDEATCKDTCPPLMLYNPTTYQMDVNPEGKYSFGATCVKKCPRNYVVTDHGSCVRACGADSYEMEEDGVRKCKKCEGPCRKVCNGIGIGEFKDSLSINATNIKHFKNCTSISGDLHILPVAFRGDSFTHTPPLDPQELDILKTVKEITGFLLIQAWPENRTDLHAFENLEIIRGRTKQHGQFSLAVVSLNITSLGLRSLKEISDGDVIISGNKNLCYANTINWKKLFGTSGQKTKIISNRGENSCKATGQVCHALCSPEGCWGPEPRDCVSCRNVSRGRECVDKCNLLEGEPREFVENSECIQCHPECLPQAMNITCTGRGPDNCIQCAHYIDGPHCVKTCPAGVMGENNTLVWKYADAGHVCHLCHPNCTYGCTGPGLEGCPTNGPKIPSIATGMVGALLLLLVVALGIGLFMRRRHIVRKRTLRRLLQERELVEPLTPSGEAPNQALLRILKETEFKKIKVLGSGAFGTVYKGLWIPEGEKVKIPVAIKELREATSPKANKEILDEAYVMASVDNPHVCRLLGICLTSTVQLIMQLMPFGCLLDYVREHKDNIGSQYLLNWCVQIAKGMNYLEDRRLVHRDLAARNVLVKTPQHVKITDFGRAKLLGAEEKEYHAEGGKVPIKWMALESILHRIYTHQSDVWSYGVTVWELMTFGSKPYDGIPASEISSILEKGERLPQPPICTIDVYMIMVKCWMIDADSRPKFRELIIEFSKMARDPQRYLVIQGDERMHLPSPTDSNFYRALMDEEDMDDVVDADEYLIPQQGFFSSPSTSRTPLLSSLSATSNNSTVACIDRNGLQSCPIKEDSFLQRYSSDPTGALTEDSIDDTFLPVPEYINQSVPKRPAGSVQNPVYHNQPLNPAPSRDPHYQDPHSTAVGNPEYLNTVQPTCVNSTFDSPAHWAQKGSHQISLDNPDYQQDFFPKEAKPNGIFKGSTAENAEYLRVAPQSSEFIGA
Chain of EGFR d746-750 T790M (P00533 with tags, fused parts or gaps DEL746-750/T790M limits assumed): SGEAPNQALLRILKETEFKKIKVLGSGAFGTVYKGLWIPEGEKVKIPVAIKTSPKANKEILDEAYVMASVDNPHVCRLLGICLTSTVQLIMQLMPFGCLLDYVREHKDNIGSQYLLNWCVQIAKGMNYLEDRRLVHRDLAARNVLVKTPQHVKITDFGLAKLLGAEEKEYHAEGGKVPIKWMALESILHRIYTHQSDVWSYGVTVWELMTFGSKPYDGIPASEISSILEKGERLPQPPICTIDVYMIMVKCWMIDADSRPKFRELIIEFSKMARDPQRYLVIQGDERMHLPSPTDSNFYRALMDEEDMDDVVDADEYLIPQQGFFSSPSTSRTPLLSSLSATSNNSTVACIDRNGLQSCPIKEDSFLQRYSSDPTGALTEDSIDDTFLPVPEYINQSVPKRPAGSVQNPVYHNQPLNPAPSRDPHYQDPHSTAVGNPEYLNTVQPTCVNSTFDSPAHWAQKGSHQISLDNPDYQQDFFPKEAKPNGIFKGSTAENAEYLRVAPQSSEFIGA

IC50 [1] [nM] | IC50 [2] [nM] | IC50 [3] [nM] | IC50 [4] [nM] | IC50 [5] [nM] | Structure (SMILES)
2.3 | 100 |  |  |  | C=CC(=O)N1CCC[C@H]1c1ccc(N2C[C@H](CS(C)(=O)=O)[C@H]2C)c2cnc(Nc3ccnc(N4CC[C@@H](OC)[C@@H](F)C4)n3)cc12 [Example 2, 1-[(2S)-2-[3-({2-[(3S,4R)-3-fluoro-4-methoxypiperidin-1-yl]pyrimidin-4-yl}amino)-8-[(2R,3S)-3-(methanesulfonylmethyl)-2-methylazetidin-1-yl]isoquinolin-5-yl]pyrrolidin-1-yl]prop-2-en-1-one]
0.15 | 1.5 | 0.29 | 0.69 | 0.88 | C=CC(=O)N1CCC[C@@H]1c1ccc(N2C[C@H](CS(C)(=O)=O)[C@H]2C)c2cnc(Nc3ccnc(N4CC[C@@H](OC)[C@@H](F)C4)n3)cc12 [Example 3, 1-[(2R)-2-[3-({2-[(3S,4R)-3-fluoro-4-methoxypiperidin-1-yl]pyrimidin-4-yl}amino)-8-[(2R,3S)-3-(methanesulfonylmethyl)-2-methylazetidin-1-yl]isoquinolin-5-yl]pyrrolidin-1-yl]prop-2-en-1-one]
